The test system of data set [1] is Rattus norvegicus. Description: Carcinogenic activity in Sprague-Dawley rat assessed as tumor induction time at 0.1 umol, sc three times a week for 30 days. The format is ADME, organism-based. The conditions noted are these: in vivo, 720 h.
Data set [2] has as its system Rattus norvegicus. Description: Carcinogenic activity in Sprague-Dawley rat assessed as tumor formation at 0.1 umol, sc three times a week for 30 days observed up to 270 days. The format is ADME, organism-based. The conditions noted are these: in vivo.

Structures are written as SMILES.

Regarding `Cc1c2ccccc2c(C)c2c1cc(F)c1ccccc12`, in data set [1], the Time turned out to be 231 days.

With `CC(=O)OCc1c2ccccc2c(C)c2c1cc(F)c1ccccc12`, in data set [1], the Time turned out to be 205.7 days.

Turning to `Cc1c2ccccc2c(CO)c2cc(F)c3ccccc3c12`, in data set [2], the Activity entry is “Non-toxic”.

Values taken from ChEMBL document CHEMBL3243992, “Synthesis and carcinogenic activity of 5-fluoro-7-(oxygenated methyl)-12-methylvenz[a]anthracenes” (J Med Chem, 1978).
